Test results: patent US4244946A, “Water-soluble peptides affecting gonadal function” (The Salk Institute for Biological Studies, priority 1979, dated 1981)

What was measured:
[1] = system: dispersed rat pituitary cells; test: LH secretion by four-day-old primary culture of dispersed rat pituitary cells over 4 hours, radioimmunoassay for rat LH; format: cell-based; settings: Table II, 4-hour period
[2] = system: dispersed rat pituitary cells; test: as above; format: cell-based; settings: for NANOGRAMS OF LH SECRETED: Table I, 4-hour period; for relative potency, compared to LRF: in vitro LH release, confidence limits in parentheses
Procedure: The peptides prepared in the foregoing Example I are assayed in vitro using a four-day-old primary culture of dispersed rat pituitary cells and compared with LRF. The levels of LH secreted over a 4-hour period in response to the application of peptides are assayed by specific radioimmunoassay for rat LH. The results of testing are expressed in Table I herebelow: […]

[3] = in vivo test of agonistic potency compared with LRF
Procedure: The effectiveness of the peptide compositions prepared in Examples I and II is also tested in vivo, and the relative agonistic potencies of peptides determined in the in vitro assays reported above correlate well with the potencies obtained from in vivo tests.

CC(C)C[C@H](NC(=O)CNC(=O)[C@H](Cc1ccc(O)cc1)NC(=O)[C@H](CO)NC(=O)[C@H](Cc1c[nH]c2ccccc12)NC(=O)[C@H](Cc1c[nH]cn1)NC(=O)[C@@H]1CCC(=O)N1)C(=O)N[C@@H](CCCNC(=N)N)C(=O)N1CCC[C@H]1C(=O)NCC(N)=O [LRF, p-Glu-His-Trp-Ser-Tyr-Gly-Leu-Arg-Pro-Gly-NH2, reference compound]
NANOGRAMS OF LH SECRETED ([1]; 0.3 nM peptide): 631 nanograms | NANOGRAMS OF LH SECRETED ([1]; 1.0 nM peptide): 1001 nanograms | NANOGRAMS OF LH SECRETED ([1]; 3.0 nM peptide): 1496 nanograms | NANOGRAMS OF LH SECRETED ([2]; 0.1 nM peptide): 1255 nanograms | NANOGRAMS OF LH SECRETED ([2]; 0.3 nM peptide): 1767 nanograms | NANOGRAMS OF LH SECRETED ([2]; 1.0 nM peptide): 2167 nanograms | NANOGRAMS OF LH SECRETED ([2]; 3.0 nM peptide): 2867 nanograms

[D-His^6 (im-Bzl), Pro^9 -NEt]-LRF [Example II]
potency compared with LRF when tested in vivo [3]: very significantly more potent than LRF | NANOGRAMS OF LH SECRETED ([1]; 0.003 nM peptide): 895 nanograms | NANOGRAMS OF LH SECRETED ([1]; 0.01 nM peptide): 1256 nanograms | NANOGRAMS OF LH SECRETED ([1]; 0.03 nM peptide): 2008 nanograms | relative potency, compared to LRF [2]: 217(57-952) times that of LRF | relative potency, compared to LRF ([2]; Pro^9 -NEt]-LRF): more than 200 times that of LRF

p-Glu-His-Trp-Ser-Tyr-D-His(im-Bzl)-Leu-Arg-Pro-Gly-NH2 [Example I]
potency compared with LRF when tested in vivo [3]: very significantly more potent than LRF | NANOGRAMS OF LH SECRETED ([2]; 0.003 nM peptide): 885 nanograms | NANOGRAMS OF LH SECRETED ([2]; 0.01 nM peptide): 1345 nanograms | NANOGRAMS OF LH SECRETED ([2]; 0.03 nM peptide): 2150 nanograms | NANOGRAMS OF LH SECRETED ([2]; 0.1 nM peptide): 2225 nanograms | NANOGRAMS OF LH SECRETED ([2]; 0.3 nM peptide): 2667 nanograms | relative potency, compared to LRF [2]: 12(5.8-24) times that of LRF | relative potency, compared to LRF ([2]; listed as [D-His^6 (im-Bzl)]-LRF): about 12 times that of LRF
